# Test results taken from patent publication US20210015793A1, “COMPOUNDS FOR TREATING CNS- AND NEURODEGENERATIVE DISEASES” (ETH ZURICH, priority 2018, published 2021).
# Tests used:
# [1] = Serum concentration by HPLC in dogs after oral dosing; assay type: in vivo, dog; conditions: dogs
# Protocol: (§1) Dog serum concentrations of Compound-1, Compound-1F and Compound-4 were determined with serum isolated from the blood of German shepherd dogs (age: 8-9 months) taken at different time points (2 h, 4 h, 6 h, 8, 10 h, 24 h) after oral drug intake. The steady-state serum concentrations of Compound-1, Compound-1F and Compound-4 were determined in mice with blood isolated at the end of the study by cardiac puncture. Serum proteins were removed by acetonitrile precipitation, and compounds were extracted by chloroform before separation on an HPLC-C18 column (Poroshell 120 EC-C18, Agilent) with an HPLC system (Agilent 1100 Series) and detection at OD 280 nm, for Compound-1 and Compound-1F. Detection of Compound-4 was performed at OD 310 nm. The same extraction method was also used to determine Compound-1F in the serum of healthy human research participants. Dog hematology and biochemical parameters were determined by the Center of Applied Analytical and Veterinary Studies, Cairo, Egypt. ECG and blood pressure were measured by Dr. Mohamed Elsaed, Electrocardiography Unit, Faculty of Veterinary Medicine, Cairo University. The study was approved by the ethical committee of the Center of Applied and Veterinary Studies, Cairo, Egypt. Clinical laboratory parameters of human research participants were determined by the Rabaa El Adaweya Medical Central Hospital, Cairo, Egypt.
# [2] = 28-day repeated oral dosing safety in German shepherd dogs; assay type: in vivo, dog; conditions: dogs
# Protocol: as §1
# [3] = repeated oral dosing 28 days, 200 mg daily
structure (smiles),measurement,setting,value
"c1cc(-c2ccc3c(c2)OCO3)ncn1 [Compound-4, 4-(1,3-benzodioxol-5-yl)pyrimidine]",dose dependence of peak serum levels at 2 h after drug intake,"[1]; doses of 120 mg, 200 mg and 300 mg, 28 days",dose-dependent increase
same,oral bioavailability,[1]; oral treatment,good oral bioavailability
same,serum concentration at t=8 h after intake,[1]; [3],undetectable
same,time to peak serum level after drug intake,[1]; [3],2 h
same,peak serum concentration,"[1]; repeated oral dosing 28 days, daily dose of 200 mg",0.56 ± 0.10 µg/mL
same,blood pressure and heart rate before vs after drug intake,[2]; 28 days,not different
same,clinical laboratory parameters,"[2]; 28 days at 120, 200 and 300 mg per day",within the normal range
same,tolerability,[2]; therapeutic dose range,excellent tolerability
